From patent US6048856A, “Heterocyclic compounds” (Novo Nordisk A/S, priority 1997, dated 2000)
Structures can show the parent of a compound that is named as a salt.

System: histamine induced paw oedema
Experiment: Histamine induced paw oedema test in rats
Type: in vivo, male Sprague-Dawley rats
Settings: Rattus norvegicus, ip; intraperitoneal, 15 minutes before anaesthetics; paw swelling 20 minutes after histamine 50 microliter
Description: Compounds of formula I may be used to treat all painful, hyperalgesic and/or inflammatory conditions in which C-fibres play a pathophysiological role by eliciting neurogenic pain or inflammation, i.e.:
I. Histamine Induced Paw Oedema
The rat histamine paw oedema test was performed essentially as described by Amann et al. (Europ. J. Pharmacol. 279, 227-231, 1995). In brief 250-300 g male Sprague-Dawley rats were anaesthetized with pentobarbital sodium, and placed on a 32 degree Celsius heated table. Ten minutes later histamine (50 micoliter, 3 mg/ml) was injected in the right hind paw and 20 minutes hereafter the paw swelling was determined by water plethysmography (Ugo Basile). Test compounds were administered intraperitoneally at 15 minutes before the anaesthetics.
Values for inhibition of histamine induced oedema response for some representative compounds are recorded in table 1.

Question: Which inhibition at 1 mg/kg does the source give for `N#CC(c1ccccc1)C1CCN(CCC=C2c3ccccc3CCc3ccccc32)CC1` (stereo not shown) [Example 5, 2-(1-(3-(10,11-Dihydro-5H-dibenzo[a,d]cyclohepten-5-ylidene)-1-propyl)-4-piperidyl)-2-phenylacetonitrile hydrochloride] here?
Answer: 30%
